Test results as given in patent publication US8999973B2, “Thieno[3,2-d]pyrimidine derivatives having inhibitory activity on protein kinases” (Hanmi Science Co., Ltd, priority 2010, dated 2015).
Substitutions are numbered along the chain they refer to. pIC50: −log10 of the molar value.

Assays:
Bcr-Abl^T315I = target: T1, Bcr-Abl^T315I (Homo sapiens, UniProt P00519, T315I); experiment: Kinase activation assay (IC50), fluorescence polarization tyrosine kinase assay kit; type: biochemical; conditions: T315I mutation kinase domain (Millipore), Poly (Glu, Tyr) 4:1 substrate, FP readout
T1 construct: purchased Millipore
T1 sequence (P00519 242-493 T315I limits assumed): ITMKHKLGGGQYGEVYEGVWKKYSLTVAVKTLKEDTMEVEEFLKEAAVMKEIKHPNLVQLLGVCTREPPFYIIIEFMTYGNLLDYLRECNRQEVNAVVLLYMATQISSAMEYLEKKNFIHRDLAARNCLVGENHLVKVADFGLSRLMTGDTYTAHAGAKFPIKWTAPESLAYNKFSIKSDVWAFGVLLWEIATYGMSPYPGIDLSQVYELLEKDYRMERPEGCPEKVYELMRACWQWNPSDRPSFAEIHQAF
Procedure: (§1) Test 1: Kinase Activation Assay (IC50)
(§2) A kinase domain (Millipore) comprising the entire cytoplasmic sequences of Bcr-Abl^wt and Bcr-Abl^T315I mutation kinases and a tyrosine kinase assay kit (Panvera, P2837) were used to measure an inhibitory activation on Bcr-abl. Other kinases such as FGFR, Flt, KDR, PDGFR, Fms, Kit, Raf, Tie2, Src, and Ret were also measured by the same method. In order to prepare a sample, the each compound obtained in Examples 1 to 128 was diluted 10 times with a kinase buffer to a concentration of 10˜0.0001 μM.
(§3) The each kinase was diluted with a kinase buffer to a concentration of 30˜300 ng/assay by using the each Kd value. The kinase buffer consisted of 100 mM HEPES (PH 7.4), 25 mM MgCl2, 10 mM MnCl2, and 250 μM Na3VO4, being kept refrigerated after filtered.
(§4) The test was conducted in 96 well polystyrene round bottom plates. First, 10 μL of the diluted sample was combined with 10 μL of the enzyme solution at room temperature for 10 minutes using a shaker. 10 μL of Poly (Glu, Tyr) 4:1 (Sigma) matrix solution in an appropriate concentration and 10 μL of ATP solution (5˜300 μM) were added to the sample and subjected to a reaction at room temperature for 60 minutes in a shaker. After 60 minutes, an EDTA solution was added thereto to complete the kinase reaction and the reaction mixture was left in a shaker for 5 minutes at room temperature. A tracer, an antibody, and a fluorescence polarization (FP) diluted reaction solution were mixed at a ratio of 1:1:3 to prepare a detecting solution, 50 μL of which was added to the each sample and subjected to a reaction at room temperature for 30 minutes in a shaker. As fluorescing, light was blocked out and the FP value was measured using a FP instrument (excitation wavelength: 485 nm, and emission wavelength: 530 nm).
(§5) And the inhibition on kinase reaction was calculated for the sample in the range of 0˜100% as compared to the control group, and the concentration on x-axis at 50% inhibition was obtained as an inhibitory concentration (IC50) value.
(§6) 50% inhibitory concentration (IC50) Y=bottom+(top−bottom)/(1+10exp(X−log IC50)

Bcr-Abl^wt = target: T2, Bcr-Abl^wt (Homo sapiens, UniProt P00519); experiment: as above; type: biochemical; conditions: kinase domain (Millipore), Poly (Glu, Tyr) 4:1 substrate, FP readout
T2 construct: purchased Millipore
T2 sequence (P00519 242-493 limits assumed): T1 sequence (P00519 242-493 T315I limits assumed) with I74T
Procedure: as §1, §2, §3, §4, §5, §6

pIC50 (Bcr-Abl^T315I) | pIC50 (Bcr-Abl^wt) | SMILES
5.00 to 6.00 | 7.00 to 9.00 | CCN1CCN(c2cc(NC(=O)c3ccc(C)c(/C=C/c4csc5c(N)ncnc45)c3)cc(C(F)(F)F)c2)CC1 [Example 3, (E)-3-(2-(4-aminothieno[3,2-d]pyrimidine-7-yl)vinyl)-N-(3-(4-ethylpiperazine-1-yl)-5-(trifluoromethyl)phenyl)-4-methylbenzamide]
5.00 to 6.00 | 6.00 to 7.00 | Cc1ccc(NC(=O)c2cccc(C(F)(F)F)c2)cc1/C=C/c1csc2c(N)ncnc12 [Example 6, (E)-N-(3-(2-(4-aminothieno[3,2-d]pyrimidine-7-yl)vinyl)-4-methylphenyl)-3-(trifluoromethyl)benzamide]
6.00 to 7.00 | 7.00 to 9.00 | CCN1CCN(Cc2ccc(C(=O)Nc3ccc(C)c(/C=C/c4csc5c(N)ncnc45)c3)cc2C(F)(F)F)CC1 [Example 7, (E)-N-(3-(2-(4-aminothieno[3,2-d]pyrimidine-7-yl)vinyl)-4-methylphenyl)-4-((4-ethylpiperazin-1-yl)methyl)-3-(trifluoromethyl)benzamide]
7.00 to 9.00 | 7.00 to 9.00 | Cc1ccc(C(=O)Nc2cccc(C(F)(F)F)c2)cc1NC(=O)c1csc2c(N)ncnc12 [Example 8, 4-amino-N-(2-methyl-5-(3-(trifluoromethyl)phenylcarbamoyl)phenyl)thieno[3,2-d]pyrimidine-7-carboxamide]
6.00 to 7.00 | 7.00 to 9.00 | COc1cc(NC(=O)c2ccc(C)c(NC(=O)c3csc4c(N)ncnc34)c2)cc(OC)c1 [Example 12, 4-amino-N-(5-(3,5-dimethoxyphenylcarbamoyl)-2-methylphenyl)thieno[3,2-d]pyrimidine-7-carboxamide]
5.00 to 6.00 | 6.00 to 7.00 | COc1cc(Nc2ncnc3c(C(=O)Nc4cc(C(=O)Nc5cccc(C(F)(F)F)c5)ccc4C)csc23)cc(OC)c1OC [Example 14, N-(2-methyl-5-(3-(trifluoromethyl)phenylcarbamoyl)phenyl)-4-(3,4,5-trimethoxyphenylamino)thieno[3,2-d]pyrimidine-7-carboxamide]
5.00 to 6.00 | 7.00 to 9.00 | Cc1ccc(C(=O)Nc2cccc(C(F)(F)F)c2)cc1NC(=O)c1csc2c(NC(C)C)ncnc12 [Example 17, 4-(isopropylamino)-N-(2-methyl-5-(3-(trifluoromethyl)phenylcarbamoyl)phenyl)thieno[3,2-d]pyrimidine-7-carboxamide]
5.00 to 6.00 | 7.00 to 9.00 | CC(=O)OCc1ccc(NC(=O)c2ccc(C)c(NC(=O)c3csc4c(NC5CC5)ncnc34)c2)cc1C(F)(F)F [Example 23, 4-(3-(4-(cyclopropylamino)thieno[3,2-d]pyrimidine-7-carboxamido)-4-methylbenzamido)-2-(trifluoromethyl)benzyl acetate]
7.00 to 9.00 | 7.00 to 9.00 | Cc1ccc(C(=O)Nc2ccc(CO)c(C(F)(F)F)c2)cc1NC(=O)c1csc2c(NC3CC3)ncnc12 [Example 24, 4-(cyclopropylamino)-N-(5-(4-(hydroxymethyl)-3-(trifluoromethyl)phenylcarbamoyl)-2-methylphenyl)thieno[3,2-d]pyrimidine-7-carboxamide]
5.00 to 6.00 | 7.00 to 9.00 | Cc1ccc(C(=O)Nc2ccc(N3CCOCC3)nc2)cc1NC(=O)c1csc2c(NC3CC3)ncnc12 [Example 29, 4-(cyclopropylamino)-N-(2-methyl-5-(6-morpholinopyridine-3-ylcarbamoyl)phenyl)thieno[3,2-d]pyrimidine-7-carboxamide]
5.00 to 6.00 | 5.00 to 6.00 | CCN1CCN(c2ccc(NC(=O)c3ccc(C)c(NC(=O)c4csc5c(NC6CC6)ncnc45)c3)cn2)CC1 [Example 30, 4-(cyclopropylamino)-N-(5-(6-(4-ethylpiperazine-1-yl)pyridine-3-ylcarbamoyl)-2-methylphenyl)thieno[3,2-d]pyrimidine-7-carboxamide]
7.00 to 9.00 | 7.00 to 9.00 | Cc1cn(-c2cc(NC(=O)c3ccc(C)c(NC(=O)c4csc5c(NC6CC6)ncnc45)c3)cc(C(F)(F)F)c2)c(C)n1 [Example 31, 4-(cyclopropylamino)-N-(5-(3-(2,4-dimethyl-1H-imidazole-1-yl)-5-(trifluoromethyl)phenylcarbamoyl)-2-methylphenyl)thieno[3,2-d]pyrimidine-7-carboxamide]
5.00 to 6.00 | 7.00 to 9.00 | COc1ccc(C(=O)Nc2cc(-n3cnc(C)c3)cc(C(F)(F)F)c2)cc1NC(=O)c1csc2c(NC3CC3)ncnc12 [Example 36, 4-(cyclopropylamino)-N-(2-methoxy-5-(3-(4-methyl-1H-imidazole-1-yl)-5-(trifluoromethyl)phenylcarbamoyl)phenyl)thieno[3,2-d]pyrimidine-7-carboxamide]
7.00 to 9.00 | 7.00 to 9.00 | Cc1ccc(NC(=O)c2cccc(C(F)(F)F)c2)cc1NC(=O)c1csc2c(N)ncnc12 [Example 39, 4-amino-N-(2-methyl-5-(3-(trifluoromethyl)benzamido)phenyl)thieno[3,2-d]pyrimidine-7-carboxamide]
7.00 to 9.00 | 7.00 to 9.00 | Cc1ccc(NC(=O)c2cc(NCCCN(C)C)cc(C(F)(F)F)c2)cc1NC(=O)c1csc2c(NC3CC3)ncnc12 [Example 41, 4-(cyclopropylamino)-N-(5-(3-(3-(dimethylamino)propylamino)-5-(trifluoromethyl)benzamido)-2-methylphenyl)thieno[3,2-d]pyrimidine-7-carboxamide]
6.00 to 7.00 | 7.00 to 9.00 | COc1cc(OC)cc(C(=O)Nc2ccc(C)c(NC(=O)c3csc4c(N)ncnc34)c2)c1 [Example 43, 4-amino-N-(5-(3,5-dimethoxybenzamido)-2-methylphenyl)thieno[3,2-d]pyrimidine-7-carboxamide]
7.00 to 9.00 | 7.00 to 9.00 | Cc1ccc(NC(=O)c2cc(-n3cccc3)cc(C(F)(F)F)c2)cc1NC(=O)c1csc2c(N)ncnc12 [Example 45, N-(5-(3-(1H-pyrrol-1-yl)-5-(trifluoromethyl)benzamido)-2-methylphenyl)-4-aminothieno[3,2-d]pyrimidine-7-carboxamide]
7.00 to 9.00 | 7.00 to 9.00 | CCN1CCN(Cc2ccc(C(=O)Nc3ccc(C)c(NC(=O)c4csc5c(N)ncnc45)c3)cc2C(F)(F)F)CC1 [Example 49, 4-amino-N-(5-(4-((4-ethylpiperazine-1-yl)methyl)-3-(trifluoromethyl)benzamido)-2-methylphenyl)thieno[3,2-d]pyrimidine-7-carboxamide]
5.00 to 6.00 | 6.00 to 7.00 | COc1cc(C(=O)Nc2ccc(C)c(NC(=O)c3csc4c(N)ncnc34)c2)nc2ccccc12 [Example 56, 4-amino-N-(5-(4-methoxyquinoline-2-carboxyamido)-2-methylphenyl)thieno[3,2-d]pyrimidine-7-carboxamide]
7.00 to 9.00 | 7.00 to 9.00 | Cc1ccc(NC(=O)c2cc(-n3ccnc3C)cc(C(F)(F)F)c2)cc1NC(=O)c1csc2c(N)ncnc12 [Example 61, 4-amino-N-(2-methyl-5-(3-(2-methyl-1H-imidazole-1-yl)-5-(trifluoromethyl)benzamido)phenyl)thieno[3,2-d]pyrimidine-7-carboxamide]
5.00 to 6.00 | 7.00 to 9.00 | COc1cccc(C(=O)Nc2ccc(C)c(NC(=O)c3csc4c(N)ncnc34)c2)c1 [Example 65, 4-amino-N-(5-(3-methoxybenzamido)-2-methylphenyl)thieno[3,2-d]pyrimidine-7-carboxamide]
5.00 to 6.00 | 6.00 to 7.00 | Cc1ccc(NC(=O)c2ccc(C(F)(F)F)cc2)cc1NC(=O)c1csc2c(N)ncnc12 [Example 66, 4-amino-N-(2-methyl-5-(4-(trifluoromethyl)benzamido)phenyl)thieno[3,2-d]pyrimidine-7-carboxamide]
